Here are results for 10 compounds from patent publication US8415497B2, “N-halogenated amino compounds and derivatives” (Novabay Pharmaceuticals, Inc., priority 2006, dated 2013).

Marks after values point to notes of the source that are not given here.

Assay type in all cases: cell-based
Data set [1] is described as follows: Concentration dependence of antimicrobial activity. The following applies: 0.9% saline at pH 3.5. The source says:
(§1) The results of our discovery provide support for antimicrobial activity of 3-(4-chlorophenyl)-2-(dichloroamino)-2-methylpropane-1-sulfonic acid in 0.9% saline at pH 3.5. […] In contrast, cell toxicity is seen at a 1000-fold higher range in the mM range.

The test system of another data set is cells. The data set can be described thus: Cell toxicity, XTT assay.
Source text: as §1
(In general: Tetrazolium dyes change colour on reduction, which living cells bring about.)

Data set [2] relates to Staphylococcus aureus (MCC 91731). The experiment in a line: Antimicrobial activity, minimum biocidal concentration. The following applies: S. aureus MCC 91731 (*), 1 h. The method, then: (§2) To determine antimicrobial activity, we use Escherichia coli (ATCC 25922), Staphylococcus aureus (ATCC 29213), Pseudomonas aeruginosa (ATCC 27853), and Candida albicans (ATCC 10231) in primary screening. In addition, we use Staphylococcus aureus (MCC 91731), Pseudomonas aeruginosa (MCC 4438), and Candida albicans (MCC 50319), provided by Alcon Laboratories, Fort Worth, Tex. The microbial cultures are diluted in sterile saline pH 4 to prepare inocula. […] Bacterial plating on Petri dishes (Tryptic Soy agar or Saboraud's Dextrose agar) is performed immediately after the designated exposure after neutralization of the test article dilutions in Dey-Engley Broth. Plates are incubated at 37° C., and the numbers of bacteria are counted by direct colony count to quantitate the surviving bacteria as CFU/mL. Positive growth controls are made with sterile 0.9% saline. All compounds are tested three times. The results are tabulated to show the comparison of antimicrobial effectiveness range of the compounds.

For data set [3], the system named is Pseudomonas aeruginosa (MCC 4438). Described as above. The following applies: P. aeruginosa MCC 4438 (#), 1 h. The protocol:
as §2, with “The microbial cultures are diluted in sterile saline pH 4 to prepare inocula.” left out

The test system of data set [4] is Candida albicans (MCC 50319). The data set is described as above. The following applies: C. albicans MCC 50319 (+), 1 h. The method, then:
as §2, with “The microbial cultures are diluted in sterile saline pH 4 to prepare inocula.” left out

Data set [5] deals with mouse fibroblast cells (ATCC CCL-1, L929). The data set can be described thus: Cytotoxicity, WST-8 colorimetric assay. The following applies: 60 min exposure. The method, then: Cytotoxicity is assessed by a colorimetric assay system using the Dojindo™ cell counting kit containing 2-(2-methoxy-4-nitrophenyl)-3-(4-nitrophenyl)—S—(2,4-disulfophenyl)-2H-tetrazolium, monosodium salt (WST-8). In this assay, the WST-8 reagent is bioreduced by cellular dehydrogenases to a formazan product that is highly soluble in tissue culture medium. The orange formazan, which is produced only by live cells, is a direct measure of cell viability and can be read spectrophotometrically (for example, evaluation of a soluble tetrazolium/formazan assay for cell growth and drug sensitivity in culture using human and other tumor cell lines is described by Scudiero D A, Shoemaker R A H, Paul K D, Monks A, Tierney S, Nofziger T H, Currens M J, Seniff D, Boyd M R. Cancer Res. 1988 Sep. 1; 48(17):4827-33). Similar approaches for determining the cell viability are known in the art.
In a standard assay, mouse fibroblast cells (ATCC CCL-1, L929), are cultured in Minimum Essential Medium, α-medium supplemented with 10% heat inactivated fetal bovine serum, L-glutamine, penicillin and streptomycin. Cells are trypsinized and counted under the microscope and seeded at 1.5×10^4 total cells per 100 μL per well of a flat-bottom 96-well plate in order to achieve ˜80% confluence after overnight incubation at 37° C. On the day of the assay, the tissue culture medium is removed and replaced with 30 μL of fresh medium.
Test articles are prepared as 2-fold serial dilutions and 170 μL, of each dilution is added into each of 4-wells (total volume per well=200 μL). The test plate is then returned to the 37° C. incubator for 60 min. Immediately after the exposed time, test article from each well is replaced with 200 μL of fresh media. Plates are incubated at 37° C. for 18-20 hours. The following day growth medium is replaced with 100 μL/well of fresh medium containing 10/100 μL WST-8 reagent. Cells are incubated under growth conditions (5% CO2 at 37° C. humidified incubator), protected from light, until color development is achieved (usually 1-4 hours). Absorbance is read at 450 nm with reference wavelength at 750 nm using Molecular Device SpectraMax M5 plate reader. Untreated or vehicle only treated cells receiving WST-8 reagent serve as positive cell proliferation controls.
The CT50 value for each compound was calculated from the absorbance values (A450-750) and is defined as the concentration of test article that results in survival of 50% of the cells following treatment. The absorbance A450-750 from each well of untreated cells and from each well within the dilution series was measured. To calculate the CT50 for each compound, all compound concentrations were first log-transformed using GraphPad Prism4 (ver 4.03) software. Next, a non-linear regression (curve fit) analysis was performed on all the absorbance data measured from the dilution series, including the absorbance data obtained from wells of the untreated control cells. For each dilution within the dilution series, an average A450-750 was calculated from the four replicate wells. The average A450-750 data were plotted on a y-axis against the log-transformed compound concentration on the x-axis, and the CT50 value calculated from the resulting best-fit curve.

Data set [6] relates to Escherichia coli (ATCC 25922). The experiment in a line: Antimicrobial activity, minimum bactericidal/biocidal concentration. The following applies: E. coli 25922, pH 4 (Sal), 1 h. The method, then:
(§3) To determine antimicrobial activity, we use Escherichia coli (ATCC 25922), Staphylococcus aureus (ATCC 29213), Pseudomonas aeruginosa (ATCC 27853), and Candida albicans (ATCC 10231) in primary screening. In addition, we use Staphylococcus aureus (MCC 91731), Pseudomonas aeruginosa (MCC 4438), and Candida albicans (MCC 50319), provided by Alcon Laboratories, Fort Worth, Tex. The microbial cultures are diluted in sterile saline pH 4 to prepare inocula. Test compounds are titrated by stepwise two-fold dilutions in sterile saline pH 4, 1.0×10^5 to 1.0×10^6 Colony Forming Units (CFU)/mL bacteriamicrobe is added to each tube, mixed by gentle vortexing, and then incubated at room temperature for 1 h. Bacterial plating on Petri dishes (Tryptic Soy agar or Saboraud's Dextrose agar) is performed immediately after the designated exposure after neutralization of the test article dilutions in Dey-Engley Broth. Plates are incubated at 37° C., and the numbers of bacteria are counted by direct colony count to quantitate the surviving bacteria as CFU/mL. Positive growth controls are made with sterile 0.9% saline. All compounds are tested three times. The results are tabulated to show the comparison of antimicrobial effectiveness range of the compounds.

The subject of data set [7] is Staphylococcus aureus (ATCC 29213). Described as above. The following applies: S. aureus 29213, pH 4 (Sal), 1 h. The protocol:
as §3

Data set [8] concerns Candida albicans (ATCC 10231). The data set can be described thus: Antimicrobial activity, minimum biocidal concentration. The following applies: C. albicans 10231, pH 4 (Sal), 1 h. The method, then:
as §3

Regarding `CC(Cc1ccc(Cl)cc1)(CS(=O)(=O)O)N(Cl)Cl` (stereo not shown) [Compound 570, 3-(4-chlorophenyl)-2-(dichloroamino)-2-methylpropane-1-sulfonic acid], in data set [1], the antimicrobial activity result is “considerable in a μM range”. Moreover, in the data set on cells, the “cell toxicity range relative to antimicrobial range” value stood at 1000 fold. Further, the “tolerance of treatment, cell proliferation versus untreated control cells” value with cells (XTT assay) is “able to tolerate the treatment and be able to go through normal cell proliferation cycles”.
As for `O=S(=O)(O)CC1(N(Cl)Cl)CCCCCC1` [Compound 601, (1-(Dichloroamino)cycloheptyl)methanesulfonic acid], the “Minimum Biocidal Concentration (MBC) (≧99.9% kill)” value was 0.25* μg/mL in data set [2] (pH 4 (Sal)) and 0.5# μg/mL in data set [3] (pH 4 (Sal)).
In the case of `CC1(N(Cl)Cl)CCCCC1S(=O)(=O)O` (stereo not shown) [Compound 611, 2-(Dichloroamino)-2-methylcyclohexane-1-sulfonic acid], the “Minimum Biocidal Concentration (MBC) (≧99.9% kill)” value was 1* μg/mL in data set [2] (pH 4 (Sal)); 64* μg/mL in [2] (pH 7 (PBS)); 0.5+ μg/mL in data set [4] (pH 4 (Sal)); 64+ μg/mL in data set [4] (pH 7 (PBS)); 1# μg/mL in data set [3] (pH 4 (Sal)); 32# μg/mL in data set [3] (pH 7 (PBS)). Further, the results for the “CT50 (concentration that results in survival of 50% of the cells)” value in [5] (pH 4 (Sal)) and in data set [5] (pH 7 (PBS)) were 0.25 mM and 4.6 mM, respectively.
Take `CC(C)(COC(=O)CCS(=O)(=O)O)N(Cl)Cl` [Compound 614, 3-(2-(Dichloroamino)-2-methylpropoxy)-3-oxopropane-1-sulfonic acid]: the “Minimum Biocidal Concentration (MBC) (≧99.9% kill)” value is given as 1* μg/mL in data set [2] (pH 4 (Sal)); 128* μg/mL in data set [2] (pH 7 (PBS)); 4+ μg/mL in data set [4] (pH 4 (Sal)); 512+ μg/mL in [4] (pH 7 (PBS)); 4# μg/mL in data set [3] (pH 4 (Sal)); 256# μg/mL in data set [3] (pH 7 (PBS)). For the same compound, the “CT50 (concentration that results in survival of 50% of the cells)” value in data set [5] (pH 4 (Sal)) was determined as 0.43 mM; in data set [5] (pH 7 (PBS)), 4.6 mM.
Turning to `CC(C)(CS(=O)(=O)O)C(=O)OCC(C)(C)N(Cl)Cl` [Compound 625, 3-(2-(Dichloroamino)-2-methylpropoxy)-2,2-dimethyl-3-oxopropane-1-sulfonic acid], the figures for the “Minimum Biocidal Concentration (MBC) (≧99.9% kill)” value in [6], in [7] and in [8] were 4 µg/mL, 8 µg/mL and 16 µg/mL, respectively. In addition, in data set [5] (pH 4 (Sal)), the “CT50 (concentration that results in survival of 50% of the cells)” value is reported as 2.6 mM.
Regarding `CNS(=O)(=O)CC(C)(C)N(Cl)Cl` [Compound 626, 2-(Dichloroamino)-N,2-dimethylpropane-1-sulfonamide], the “Minimum Biocidal Concentration (MBC) (≧99.9% kill)” value in data set [6] came to 4 µg/mL; in data set [7], 0.5 µg/mL; in data set [8], 8 µg/mL.
In the case of `CC(=O)NS(=O)(=O)CC(C)(C)N(Cl)Cl` [Compound 627, N-(2-(Dichloroamino)-2-methylpropylsulfonyl)acetamide], the figures for the “Minimum Biocidal Concentration (MBC) (≧99.9% kill)” value in data set [6], in [7] and in data set [8] were 2 µg/mL, 1 µg/mL and 64 µg/mL, respectively.
The matching figures for `CC(C)(CC(=O)OCCS(=O)(=O)O)N(Cl)Cl` [Compound 628, 2-(3-(Dichloroamino)-3-methylbutanoyloxy)ethanesulfonic acid]: 2 µg/mL, 2 µg/mL and 64 µg/mL.
The matching figures for `CC(C)(CS(=O)(=O)CCS(=O)(=O)O)N(Cl)Cl` [Compound 630, 2-(2-(Dichloroamino)-2-methylpropylsulfonyl)ethanesulfonic acid]: 4 µg/mL, 8 µg/mL and 64 µg/mL.
The matching figures for `CC(=O)N1CCC(CS(=O)(=O)O)(N(Cl)Cl)CC1` [Compound 637, (1-Acetyl-4-(dichloroamino)piperidin-4-yl)methanesulfonic acid]: 16 µg/mL, 4 µg/mL and 128 µg/mL.
